Assay results: US20250145628A1, “PYRAZOLOPYRIMIDINES, COMPOSITIONS COMPRISING THEM AND USES THEREOF” (Novo Nordisk A/S, priority 2022, published 2025)

Key:
human CB1 receptor [1] = biological target: T1, human CB1 receptor (Homo sapiens, UniProt P21554); assay: bioSensAll GAPL-Gi2 BRET biosensor assay (antagonism of CP-55,940); assay type: cell-based; settings: HEK293 cells transfected with hCB1 and GAPL-Gi2 biosensor, EC75 of CP-55,940 (0.1 nM), overnight incubation, read-out: CB1 wt Gi2 IC50
T1 construct: expressed in transfected cells; host or cells: HEK293
In short: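 HEK293 cells transiently co-transfected with hCB1 and GAPL-Gi2 BRET biosensor; ~48 h later, in HBSS, 12 compound doses ([…]) added 3–5 min before CP-55,940 at EC75 (0.1 nM). BRET ratio 515/400 nm with coelenterazine, standardized to uBRET; four-parameter logistic fit.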

human CB1 receptor [2] = biological target: T1, human CB1 receptor; assay: bioSensAll β-arrestin plasma membrane translocation BRET biosensor (+GRK2) assay (antagonism of CP-55,940); assay type: cell-based; settings: HEK293 cells transfected with hCB1 and β-arrestin PM translocation biosensor (+GRK2), EC75 of CP-55,940 (100 nM), overnight incubation, read-out: CB1 wt βarr2 IC50
In short: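 HEK293 cells co-transfected with hCB1 and β-arrestin plasma-membrane translocation BRET biosensor plus GRK2, tested ~48 h later in HBSS. Compounds (12 doses, 0–600 nM) added 3–5 min before CP-55,940 at EC75 of 100 nM. uBRET ratio (515/400 nm) fitted by four-parameter logistic regression.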

T1 sequence (P21554 whole entry): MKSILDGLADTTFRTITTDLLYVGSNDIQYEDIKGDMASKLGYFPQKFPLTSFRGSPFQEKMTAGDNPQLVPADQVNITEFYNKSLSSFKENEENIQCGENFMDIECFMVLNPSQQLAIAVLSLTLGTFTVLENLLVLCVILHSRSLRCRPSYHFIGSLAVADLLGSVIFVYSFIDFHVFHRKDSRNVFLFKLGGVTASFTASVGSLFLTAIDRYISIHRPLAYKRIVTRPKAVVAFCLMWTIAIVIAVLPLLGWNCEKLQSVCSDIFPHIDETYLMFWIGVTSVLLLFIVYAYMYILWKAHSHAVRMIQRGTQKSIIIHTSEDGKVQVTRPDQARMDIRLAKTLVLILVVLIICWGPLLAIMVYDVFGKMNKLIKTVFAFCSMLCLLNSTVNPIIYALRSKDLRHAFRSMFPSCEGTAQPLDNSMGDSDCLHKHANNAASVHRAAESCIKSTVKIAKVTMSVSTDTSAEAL

| IC50 (human CB1 receptor [1]) [nM] | IC50 (human CB1 receptor [2]) [nM] | SMILES |
| --- | --- | --- |
| 679 | 198 | CN(CP(C)(C)=O)c1cc(N2CC[C@H](CC(N)=O)C2)n2nc(-c3ccccc3Cl)c(-c3ccc(Cl)cc3)c2n1 [Compound 30, 2-[(3R)-1-[2-(2-chlorophenyl)-3-(4-chlorophenyl)-5-[dimethylphosphorylmethyl(methyl)amino]pyrazolo[1,5-a]pyrimidin-7-yl]pyrrolidin-3-yl]acetamide] |
| 25.5 | 101 | CN(CCC(N)=O)c1cc(N2CCC[C@@H](C(N)=O)C2)n2nc(-c3ccccc3Cl)c(-c3ccc(Cl)cc3)c2n1 [Compound 23, (3R)-1-[5-[(3-amino-3-oxo-propyl)-methyl-amino]-2-(2-chlorophenyl)-3-(4-chlorophenyl)pyrazolo[1,5-a]pyrimidin-7-yl]piperidine-3-carboxamide] |
| 3.08 | 12.3 | C[C@H](CO)Oc1cc(-c2ccc(C(F)(F)F)nc2)n2nc(-c3ccccc3Cl)c(-c3ccc(Cl)cc3)c2n1 [Compound 71(R)] |
| 1.67 | 4.73 | CCOC1(C(N)=O)CCN(c2cc(OCC(C)(C)O)nc3c(-c4ccc(Cl)cc4)c(-c4ccccc4Cl)nn23)CC1 [Compound 42, 1-[2-(2-chlorophenyl)-3-(4-chlorophenyl)-5-(2-hydroxy-2-methyl-propoxy)pyrazolo[1,5-a]pyrimidin-7-yl]-4-ethoxy-piperidine-4-carboxamide] |
| 3.79 | 29.9 | CCNC(=O)CN(C)c1cc(N2CCC(C)(C(N)=O)CC2)n2nc(-c3ccccc3Cl)c(-c3ccc(Cl)cc3)c2n1 [Compound 46, 1-[2-(2-chlorophenyl)-3-(4-chlorophenyl)-5-[[2-(ethylamino)-2-oxo-ethyl]-methyl-amino]pyrazolo[1,5-a]pyrimidin-7-yl]-4-methyl-piperidine-4-carboxamide] |
| 93 | 161 | CNC(=O)CCN(C)c1cc(N2CCC[C@@H](C(N)=O)C2)n2nc(-c3ccccc3Cl)c(-c3ccc(Cl)cc3)c2n1 [Compound 41, (3R)-1-[2-(2-chlorophenyl)-3-(4-chlorophenyl)-5-[methyl-[3-(methylamino)-3-oxo-propyl]amino]pyrazolo[1,5-a]pyrimidin-7-yl]piperidine-3-carboxamide] |
| 3.01 | 14.5 | C[C@@H](C(N)=O)N(C)c1cc(N2CCC(C)(C(N)=O)CC2)n2nc(-c3ccccc3Cl)c(-c3ccc(Cl)cc3)c2n1 [Compound 68, 1-[5-[[(1S)-2-amino-1-methyl-2-oxo-ethyl]-methyl-amino]-2-(2-chlorophenyl)-3-(4-chlorophenyl)pyrazolo[1,5-a]pyrimidin-7-yl]-4-methyl-piperidine-4-carboxamide] |
| 9.09 | 40.4 | CC(C)(O)COc1cc(N2CCC[C@H](C(N)=O)C2)n2nc(-c3ccccc3Cl)c(-c3ccc(Cl)cc3)c2n1 [Compound 17(S), (3S)-1-[2-(2-chlorophenyl)-3-(4-chlorophenyl)-5-(2-hydroxy-2-methyl-propoxy)pyrazolo[1,5-a]pyrimidin-7-yl]piperidine-3-carboxamide] |
| 1.77 | 9.94 | COc1ccccc1-c1nn2c(-c3cccc(C#N)c3)cc(N3CCC[C@H]3CO)nc2c1-c1ccc(Cl)cc1 [Compound 3, 3-[3-(4-chlorophenyl)-5-[(2S)-2-(hydroxymethyl)pyrrolidin-1-yl]-2-(2-methoxyphenyl)pyrazolo[1,5-a]pyrimidin-7-yl]benzonitrile] |
| 1.55 | 3.31 | O=S(=O)(N1CCN(c2cc(N3CCC[C@H]3CO)nc3c(-c4ccc(Cl)cc4)c(-c4ccccc4Cl)nn23)CC1)C(F)(F)F [Compound 7, [(2S)-1-[2-(2-chlorophenyl)-3-(4-chlorophenyl)-7-[4-(trifluoromethylsulfonyl)piperazin-1-yl]pyrazolo[1,5-a]pyrimidin-5-yl]pyrrolidin-2-yl]methanol] |
| 1.11 | 2.78 | C[C@@H](O)COc1cc(-c2ccc(C(F)(F)F)nc2)n2nc(-c3ccccc3Cl)c(-c3ccc(Cl)cc3)c2n1 [Compound 70(R)] |
| 584 | > 10000 | CN(C)C(=O)CN(C)c1cc(N2CC(CC(N)=O)C2)n2nc(-c3ccccc3Cl)c(-c3ccc(Cl)cc3)c2n1 [Compound 32, 2-[1-[2-(2-chlorophenyl)-3-(4-chlorophenyl)-5-[[2-(dimethylamino)-2-oxo-ethyl]-methyl-amino]pyrazolo[1,5-a]pyrimidin-7-yl]azetidin-3-yl]acetamide] |
| 0.99 | 2.2 | CC(C)OC1(C(N)=O)CCN(c2cc(N3CCC[C@H]3CO)nc3c(-c4ccc(Cl)cc4)c(-c4ccccc4Cl)nn23)CC1 [Compound 58, 1-[2-(2-chlorophenyl)-3-(4-chlorophenyl)-5-[(2S)-2-(hydroxymethyl)pyrrolidin-1-yl]pyrazolo[1,5-a]pyrimidin-7-yl]-4-isopropoxy-piperidine-4-carboxamide] |
| 1.28 | 5.27 | OC[C@@H]1CCCN1c1cc(N2CCC(C(F)(F)F)CC2)n2nc(-c3ccccc3Cl)c(-c3ccc(Cl)cc3)c2n1 [Compound 2, [(2S)-1-[2-(2-chlorophenyl)-3-(4-chlorophenyl)-7-[4-(trifluoromethyl)-1-piperidyl]pyrazolo[1,5-a]pyrimidin-5-yl]pyrrolidin-2-yl]methanol] |
| 1480 | > 10000 | CC1(C(N)=O)CCN(c2cc(N3CC[C@@H]3CC(=O)O)nc3c(-c4ccc(Cl)cc4)c(-c4ccccc4Cl)nn23)CC1 [Compound 19, 2-[(2R)-1-[7-(4-carbamoyl-4-methyl-1-piperidyl)-2-(2-chlorophenyl)-3-(4-chlorophenyl)pyrazolo[1,5-a]pyrimidin-5-yl]azetidin-2-yl]acetic acid] |
| 1.8 | 4.41 | OC[C@@H]1CCCN1c1cc(-c2ccc(C(F)(F)F)nc2)n2nc(-c3ccccc3Cl)c(-c3ccc(Cl)cc3)c2n1 [Compound 8, [(2S)-1-[2-(2-chlorophenyl)-3-(4-chlorophenyl)-7-[6-(trifluoromethyl)-3-pyridyl]pyrazolo[1,5-a]pyrimidin-5-yl]pyrrolidin-2-yl]methanol] |
| 1.39 | 3.65 | N#Cc1ccc(-c2nn3c(N4CC(C(N)=O)C4)cc(N4CCC[C@H]4CO)nc3c2-c2ccc(Cl)cc2)cn1 [Compound 61, 1-[3-(4-chlorophenyl)-2-(6-cyano-3-pyridyl)-5-[(2S)-2-(hydroxymethyl)pyrrolidin-1-yl]pyrazolo[1,5-a]pyrimidin-7-yl]azetidine-3-carboxamide] |
| 5.53 | 22.8 | CN(CC(C)(C)O)c1cc(N2CCC(C)(C(N)=O)CC2)n2nc(-c3ccccc3Cl)c(-c3ccc(Cl)cc3)c2n1 [Compound 20, 1-[2-(2-chlorophenyl)-3-(4-chlorophenyl)-5-[(2-hydroxy-2-methyl-propyl)-methyl-amino]pyrazolo[1,5-a]pyrimidin-7-yl]-4-methyl-piperidine-4-carboxamide] |
| 5.91 | 35.3 | CC1(C(N)=O)CCN(c2cc(N3CCC[C@H]3C(N)=O)nc3c(-c4ccc(Cl)cc4)c(-c4ccccc4Cl)nn23)CC1 [Compound 37, 1-[5-[(2S)-2-carbamoylpyrrolidin-1-yl]-2-(2-chlorophenyl)-3-(4-chlorophenyl)pyrazolo[1,5-a]pyrimidin-7-yl]-4-methyl-piperidine-4-carboxamide] |
| 1.2 | 4.31 | CCNC1(C(N)=O)CCN(c2cc(N3CCC[C@H]3CO)nc3c(-c4ccc(Cl)cc4)c(-c4ccccc4Cl)nn23)CC1 [Compound 1, 1-[2-(2-chlorophenyl)-3-(4-chlorophenyl)-5-[(2S)-2-(hydroxymethyl)pyrrolidin-1-yl]pyrazolo[1,5-a]pyrimidin-7-yl]-4-(ethylamino)piperidine-4-carboxamide] |
| 33.7 | 131 | CCNC(=O)CNc1cc(N2CCC(C)(C(N)=O)CC2)n2nc(-c3ccccc3Cl)c(-c3ccc(Cl)cc3)c2n1 [Compound 47, 1-[2-(2-chlorophenyl)-3-(4-chlorophenyl)-5-[[2-(ethylamino)-2-oxo-ethyl]amino]pyrazolo[1,5-a]pyrimidin-7-yl]-4-methyl-piperidine-4-carboxamide] |
| 5.91 | 13.3 | CC(C)(O)COc1cc(N2CCN(S(C)(=O)=O)CC2)n2nc(-c3ccccc3Cl)c(-c3ccc(Cl)cc3)c2n1 [Compound 16, 1-[2-(2-chlorophenyl)-3-(4-chlorophenyl)-7-(4-methylsulfonylpiperazin-1-yl)pyrazolo[1,5-a]pyrimidin-5-yl]oxy-2-methyl-propan-2-ol] |
| 56.2 | 109 | CC1(C(N)=O)CCN(c2cc(N3CCC[C@H]3C(=O)O)nc3c(-c4ccc(Cl)cc4)c(-c4ccccc4Cl)nn23)CC1 [Compound 18, (2S)-1-[7-(4-carbamoyl-4-methyl-1-piperidyl)-2-(2-chlorophenyl)-3-(4-chlorophenyl)pyrazolo[1,5-a]pyrimidin-5-yl]pyrrolidine-2-carboxylic acid] |
| 1.25 | 2.95 | CN(CC(C)(C)O)c1cc(-c2ccc(C(F)(F)F)nc2)n2nc(-c3ccc(C(N)=O)nc3)c(-c3ccc(Cl)cc3)c2n1 [Compound 64, 5-[3-(4-chlorophenyl)-5-[(2-hydroxy-2-methyl-propyl)-methyl-amino]-7-[6-(trifluoromethyl)-3-pyridyl]pyrazolo[1,5-a]pyrimidin-2-yl]pyridine-2-carboxamide] |
